Measured values published in patent US11110082B2, “Tyrosine kinase inhibitors” (Rigel Pharmaceuticals, Inc., priority 2016, dated 2021).

The compounds below were run against T1, MerTK (Homo sapiens, UniProt Q12866) (assay: PAKT HTRF-HUVEC assay (pAkt Ser473 HTRF after anti-human MerTK-XL stimulation)). Conditions: HUVEC cells, 1 hour compound, stimulated with anti-human MerTK-XL 1 ug/mL for 10 minutes, read-out: inhibition of MerTK.
T1 construct: Seed HUVECs (10K cells/well) in EBM-2 complete media; host or cells: HUVEC (primary human umbilical vein endothelial cells)
T1 sequence (Q12866 21-999): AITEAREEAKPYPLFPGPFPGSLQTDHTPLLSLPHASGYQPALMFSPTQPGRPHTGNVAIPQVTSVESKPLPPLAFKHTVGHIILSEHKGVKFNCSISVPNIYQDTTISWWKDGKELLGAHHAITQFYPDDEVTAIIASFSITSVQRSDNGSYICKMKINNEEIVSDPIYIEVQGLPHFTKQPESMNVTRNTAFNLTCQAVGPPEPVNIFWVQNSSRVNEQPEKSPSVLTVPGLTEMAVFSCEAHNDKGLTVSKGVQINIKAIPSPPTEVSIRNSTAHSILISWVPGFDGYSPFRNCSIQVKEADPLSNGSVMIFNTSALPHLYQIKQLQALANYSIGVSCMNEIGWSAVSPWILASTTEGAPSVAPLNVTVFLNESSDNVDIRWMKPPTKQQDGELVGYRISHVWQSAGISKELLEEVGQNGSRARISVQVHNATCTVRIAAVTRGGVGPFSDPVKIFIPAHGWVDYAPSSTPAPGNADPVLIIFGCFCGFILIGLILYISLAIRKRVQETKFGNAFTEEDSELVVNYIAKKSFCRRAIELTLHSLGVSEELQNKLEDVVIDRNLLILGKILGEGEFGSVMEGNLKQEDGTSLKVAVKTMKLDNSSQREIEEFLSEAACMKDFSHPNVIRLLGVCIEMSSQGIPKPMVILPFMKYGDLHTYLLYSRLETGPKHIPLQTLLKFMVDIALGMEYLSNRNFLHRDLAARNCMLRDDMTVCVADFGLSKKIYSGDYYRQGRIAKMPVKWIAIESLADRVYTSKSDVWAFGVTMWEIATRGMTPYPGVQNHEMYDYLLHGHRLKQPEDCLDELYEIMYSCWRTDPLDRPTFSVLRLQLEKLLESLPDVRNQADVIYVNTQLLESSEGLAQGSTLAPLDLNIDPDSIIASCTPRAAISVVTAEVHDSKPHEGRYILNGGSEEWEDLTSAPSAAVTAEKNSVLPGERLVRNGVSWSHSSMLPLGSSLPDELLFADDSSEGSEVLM
Type: cell-based
Method in brief: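 HUVECs starved 3-4 h in basal medium, preincubated with compound 1 h at 37° C, then stimulated 10 min with cross-linked anti-human MerTK antibody (final 1 ug/mL). Lysates read for pAkt (Ser473) by HTRF; EC50 from curve fitting.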

Row | Structure (SMILES) | EC50 [nM]
1 | CCCCNc1ncc2c3ccc(N4CCN(C)[C@H](C)C4)cc3c(=O)n([C@H]3CC[C@H](O)CC3)c2n1 [Compound 90, trans-3-(Butylamino)-8-((R)-3,4-dimethylpiperazin-1-yl)-5-(4-hydroxycyclohexyl)pyrimido [4,5-c]isoquinolin-6(5H)-one] | 13.1
2 | CCC1(CNc2ncc3c4ccc(N5CCN(C)CC5)cc4c(=O)n([C@H]4CC[C@H](O)CC4)c3n2)CCC1 [Compound 91, trans-3-(((1-Ethylcyclobutyl)methyl)amino)-5-(4-hydroxycyclohexyl)-8-(4-methylpiperazin-1-yl)pyrimido[4,5-c]isoquinolin-6(5H)-one] | 3910
3 | CN1CCN(c2ccc3c(c2)c(=O)n([C@H]2CC[C@H](O)CC2)c2nc(NCC4CCC4)ncc32)CC1 [Compound 92, trans-3-((Cyclobutylmethyl)amino)-5-(4-hydroxycyclohexyl)-8-(4-methylpiperazin-1-yl)pyrimido[4,5-c]isoquinolin-6(5H)-one] | 38.8
4 | CCC(F)(F)CNc1ncc2c3ccc(N4CCN(C)CC4)cc3c(=O)n([C@H]3CC[C@H](O)CC3)c2n1 [Compound 93, trans-3-((2,2-Difluorobutyl)amino)-5-(4-hydroxycyclohexyl)-8-(4-methylpiperazin-1-yl)pyrimido[4,5-c]isoquinolin-6(5H)-one] | 358
5 | CCC1(CNc2ncc3c4ccc(N5CCN(C)CC5)cc4c(=O)n([C@H]4CC[C@H](O)CC4)c3n2)CC1 [Compound 94, trans-3-(((1-Ethylcyclopropyl)methyl)amino)-5-(4-hydroxycyclohexyl)-8-(4-methylpiperazin-1-yl)pyrimido[4,5-c]isoquinolin-6(5H)-one] | 1100
6 | CN1CCN(c2ccc3c(c2)c(=O)n([C@H]2CC[C@H](O)CC2)c2nc(NCCCC(F)(F)F)ncc32)CC1 [Compound 95, trans-5-(4-Hydroxycyclohexyl)-8-(4-methylpiperazin-1-yl)-3-((4,4,4-trifluorobutyl)amino)pyrimido [4,5-c]isoquinolin-6(5H)-one] | 3920
7 | CN1CCN(c2ccc3c(c2)c(=O)n([C@H]2CC[C@H](O)CC2)c2nc(NCCC4CC4)ncc32)CC1 [Compound 96, trans-3-((2-Cyclopropylethyl)amino)-5-(4-hydroxycyclohexyl)-8-(4-methylpiperazin-1-yl)pyrimido[4,5-c]isoquinolin-6(5H)-one] | 41.4
8 | CN1CCN(c2ccc3c(c2)c(=O)n(C2CCC(C)(O)CC2)c2nc(NCC4CC4)ncc32)CC1 (stereo not drawn) [Compound 97, trans-3-((Cyclopropylmethyl)amino)-5-(4-hydroxy-4-methylcyclohexyl)-8-(4-methylpiperazin-1-yl)pyrimido[4,5-c]isoquinolin-6(5H)-one] | 69.1
9 | CN1CCN(c2ccc3c(c2)c(=O)n([C@H]2CC[C@](C)(O)CC2)c2nc(NCCC4CC4)ncc32)CC1 [Compound 98, trans-3-((2-Cyclopropylethyl)amino)-5-(4-hydroxy-4-methylcyclohexyl)-8-(4-methylpiperazin-1-yl)pyrimido[4,5-c]isoquinolin-6(5H)-one] | 35.7
10 | O=c1c2cc(N3CCC(N4CCCC4)CC3)ccc2c2cnc(NCC3CC3)nc2n1[C@H]1CC[C@H](O)CC1 [Compound 99, trans-3-((Cyclopropylmethyl)amino)-5-(4-hydroxycyclohexyl)-8-(4-(pyrrolidin-1-yl)piperidin-1-yl)pyrimido[4,5-c]isoquinolin-6(5H)-one] | 94.8
11 | O=c1c2cc(N3CCn4ncnc4C3)ccc2c2cnc(NCC3CC3)nc2n1[C@H]1CC[C@H](O)CC1 [Compound 101, trans-3-((Cyclopropylmethyl)amino)-8-(5,6-dihydro-[1,2,4]triazolo[1,5-a]pyrazin-7(8H)-yl)-5-(4-hydroxycyclohexyl)pyrimido [4,5-c]isoquinolin-6(5H)-one] | 296
12 | O=c1c2cc(N3CCN4CCC[C@H]4C3)ccc2c2cnc(NCC3CC3)nc2n1[C@H]1CC[C@H](O)CC1 [Compound 102, trans-3-((Cyclopropylmethyl)amino)-8-((S)-hexahydropyrrolo[1,2-a]pyrazin-2(1H)-yl)-5-(4-hydroxycyclohexyl)pyrimido [4,5-c]isoquinolin-6(5H)-one] | 123
13 | O=c1c2cc(N3CCN4CCC[C@@H]4C3)ccc2c2cnc(NCC3CC3)nc2n1[C@H]1CC[C@H](O)CC1 [Compound 103, trans-3-((Cyclopropylmethyl)amino)-8-((R)-hexahydropyrrolo[1,2-a]pyrazin-2(1H)-yl)-5-(4-hydroxycyclohexyl)pyrimido [4,5-c]isoquinolin-6(5H)-one] | 129
14 | O=c1c2cc(N3CCN(CC(F)(F)F)CC3)ccc2c2cnc(NCC3CC3)nc2n1[C@H]1CC[C@H](O)CC1 [Compound 104, trans-3-((Cyclopropylmethyl)amino)-5-(4-hydroxycyclohexyl)-8-(4-(2,2,2-trifluoroethyl)piperazin-1-yl)pyrimido[4,5-c]isoquinolin-6(5H)-one] | 289
15 | O=c1c2cc(N3CCN(CC(F)F)CC3)ccc2c2cnc(NCC3CC3)nc2n1[C@H]1CC[C@H](O)CC1 [Compound 105, trans-3-((Cyclopropylmethyl)amino)-8-(4-(2,2-difluoroethyl)piperazin-1-yl)-5-(4-hydroxycyclohexyl)pyrimido [4,5-c]isoquinolin-6(5H)-one] | 354
16 | C[C@@H]1CN(c2ccc3c(c2)c(=O)n([C@H]2CC[C@H](O)CC2)c2nc(NCC4CC4)ncc32)CCN1C [Compound 106, trans-3-((Cyclopropylmethyl)amino)-8-((R)-3,4-dimethylpiperazin-1-yl)-5-(4-hydroxycyclohexyl)pyrimido [4,5-c]isoquinolin-6(5H)-one] | 70.4
17 | C[C@@H]1CN(c2ccc3c(c2)c(=O)n([C@H]2CC[C@H](O)CC2)c2nc(NCC4CC4)ncc32)[C@@H](C)CN1C [Compound 107, trans-3-((Cyclopropylmethyl)amino)-5-(4-hydroxycyclohexyl)-8-((2S,5R)-2,4,5-trimethylpiperazin-1-yl)pyrimido[4,5-c]isoquinolin-6(5H)-one] | 58.2
18 | O=c1c2cc(N3CCNCC3)ccc2c2cnc(NCC3CC3)nc2n1[C@H]1CC[C@H](O)CC1 [Compound 108, trans-3-((Cyclopropylmethyl)amino)-5-(4-hydroxycyclohexyl)-8-(piperazin-1-yl)pyrimido[4,5-c]isoquinolin-6(5H)-one] | 170
19 | CC(C)N1CCN(c2ccc3c(c2)c(=O)n([C@H]2CC[C@H](O)CC2)c2nc(NCC4CC4)ncc32)CC1 [Compound 109, trans-3-((Cyclopropylmethyl)amino)-5-(4-hydroxycyclohexyl)-8-(4-isopropylpiperazin-1-yl)pyrimido[4,5-c]isoquinolin-6(5H)-one] | 97.5
20 | O=c1c2cc(N3CCN(C4CC4)CC3)ccc2c2cnc(NCC3CC3)nc2n1[C@H]1CC[C@H](O)CC1 [Compound 110, trans-3-((Cyclopropylmethyl)amino)-8-(4-cyclopropylpiperazin-1-yl)-5-(4-hydroxycyclohexyl)pyrimido [4,5-c]isoquinolin-6(5H)-one] | 483
21 | O=c1c2cc(N3CCN(C4COC4)CC3)ccc2c2cnc(NCC3CC3)nc2n1[C@H]1CC[C@H](O)CC1 [Compound 111, trans-3-((Cyclopropylmethyl)amino)-5-(4-hydroxycyclohexyl)-8-(4-(oxetan-3-yl)piperazin-1-yl)pyrimido[4,5-c]isoquinolin-6(5H)-one] | 380
22 | CCCCNc1ncc2c3ccccc3c(=O)n(C3CC4(CC(O)C4)C3)c2n1 (stereo not shown) [Compound 112, 3-(Butylamino)-5-(6-hydroxyspiro[3,3]heptan-2-yl)pyrimido[4,5-c]isoquinolin-6(5H)-one] | 472
23 | CCCCNc1ncc2c3ccccc3c(=O)n(C3CCC(C)(O)CC3)c2n1 (stereo not drawn) [Compound 113, trans-3-(Butylamino)-5-(4-hydroxy-4-methylcyclohexyl)pyrimido [4,5-c]isoquinolin-6(5H)-one] | 44.9
24 | O=c1c2ccccc2c2cnc(NCC3CC3)nc2n1[C@H]1CC[C@H](O)CC1 [Compound 114, trans-3-((Cyclopropylmethyl)amino)-5-(4-hydroxycyclohexyl)pyrimido [4,5-c]isoquinolin-6(5H)-one] | 743
25 | CCCCNc1ncc2c3ccccc3c(=O)n([C@H]3CC[C@@](C)(O)CC3)c2n1 [Compound 115, cis-3-(Butylamino)-5-(4-hydroxy-4-methylcyclohexyl)pyrimido [4,5-c]isoquinolin-6(5H)-one] | 554
